Laboratory results from PubChem BioAssay (NCI).
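Compound exposure: 48 hours, 5 concentrations, 96-well plates. Definition used: TGI = concentration required for complete inhibition of growth.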

Legend:
Experiment in all cases: growth of human tumour cells (NCI), 48 h
NCI-H23 lung = system: NCI-H23 lung
LXFL 529 NSCLC = system: LXFL 529 NSCLC
ACHN renal = system: ACHN renal
MDA-MB-231 breast = system: MDA-MB-231 breast
MALME-3M melanoma = system: MALME-3M melanoma
SK-MEL-2 melanoma = system: SK-MEL-2 melanoma
OVCAR-4 ovarian = system: OVCAR-4 ovarian
BT-549 breast = system: BT-549 breast
HL-60(TB) leukemia = system: HL-60(TB) leukemia
RPMI-8226 leukemia = system: RPMI-8226 leukemia
SNB-19 CNS = system: SNB-19 CNS
786-0 renal = system: 786-0 renal
NCI-H460 lung = system: NCI-H460 lung
COLO 205 colon = system: COLO 205 colon
SK-MEL-28 melanoma = system: SK-MEL-28 melanoma
M19-MEL melanoma = system: M19-MEL melanoma
MCF7 breast = system: MCF7 breast
EKVX NSCLC = system: EKVX NSCLC
SK-OV-3 ovarian = system: SK-OV-3 ovarian
HT29 colon = system: HT29 colon
A549 NSCLC = system: A549 NSCLC
DMS 273 small cell lung = system: DMS 273 small cell lung
OVCAR-5 ovarian = system: OVCAR-5 ovarian
OVCAR-8 ovarian = system: OVCAR-8 ovarian
HS 578T breast = system: HS 578T breast
HCC-2998 colon = system: HCC-2998 colon
NCI-H522 lung = system: NCI-H522 lung
HOP-18 NSCLC = system: HOP-18 NSCLC
SF-295 CNS = system: SF-295 CNS
UACC-62 melanoma = system: UACC-62 melanoma
HOP-62 NSCLC = system: HOP-62 NSCLC
MDA-MB-435 = system: MDA-MB-435
SF-268 CNS = system: SF-268 CNS
KM12 colon = system: KM12 colon
SW-620 colon = system: SW-620 colon
SK-MEL-5 melanoma = system: SK-MEL-5 melanoma
CAKI-1 renal = system: CAKI-1 renal
MDA-N = system: MDA-N
RXF 393 renal = system: RXF 393 renal
HCT-15 colon = system: HCT-15 colon
HOP-92 NSCLC = system: HOP-92 NSCLC
DLD-1 colon = system: DLD-1 colon
NCI/ADR-RES ovarian = system: NCI/ADR-RES ovarian
IGROV1 ovarian = system: IGROV1 ovarian
LOX IMVI melanoma = system: LOX IMVI melanoma
U251 CNS = system: U251 CNS
T-47D breast = system: T-47D breast
SNB-75 CNS = system: SNB-75 CNS
CCRF-CEM leukemia = system: CCRF-CEM leukemia
DMS 114 small cell lung = system: DMS 114 small cell lung
A498 renal = system: A498 renal
K-562 leukemia = system: K-562 leukemia
SF-539 CNS = system: SF-539 CNS
HCT-116 colon = system: HCT-116 colon
NCI-H226 lung = system: NCI-H226 lung
DU-145 prostate = system: DU-145 prostate
M14 melanoma = system: M14 melanoma
SN12C renal = system: SN12C renal
UACC-257 melanoma = system: UACC-257 melanoma
UO-31 renal = system: UO-31 renal
MOLT-4 leukemia = system: MOLT-4 leukemia
OVCAR-3 ovarian = system: OVCAR-3 ovarian
KM20L2 colon = system: KM20L2 colon
XF 498 CNS = system: XF 498 CNS
SNB-78 CNS = system: SNB-78 CNS
SR leukemia = system: SR leukemia
PC-3 prostate = system: PC-3 prostate
TK-10 renal = system: TK-10 renal
RXF-631 renal = system: RXF-631 renal

What does the source list for S=C(S)N1CCOCC1?
TGI (NCI-H23 lung): > 34 µM; TGI (LXFL 529 NSCLC): > 100 µM; TGI (ACHN renal): > 100 µM; TGI (MDA-MB-231 breast): > 100 µM; TGI (MALME-3M melanoma): > 64.2 µM; TGI (SK-MEL-2 melanoma): > 100 µM; TGI (OVCAR-4 ovarian): > 34.5 µM; TGI (BT-549 breast): > 100 µM; TGI (HL-60(TB) leukemia): 14.3 µM; TGI (RPMI-8226 leukemia): 42.6 µM; TGI (SNB-19 CNS): > 100 µM; TGI (786-0 renal): > 41.4 µM; TGI (NCI-H460 lung): > 29.6 µM; TGI (COLO 205 colon): 5.98 µM; TGI (SK-MEL-28 melanoma): 82.2 µM; TGI (M19-MEL melanoma): 12.4 µM; TGI (MCF7 breast): > 100 µM; TGI (EKVX NSCLC): > 100 µM; TGI (SK-OV-3 ovarian): > 100 µM; TGI (HT29 colon): 17.1 µM; TGI (A549 NSCLC): > 100 µM; TGI (DMS 273 small cell lung): 21.1 µM; TGI (OVCAR-5 ovarian): > 100 µM; TGI (OVCAR-8 ovarian): > 100 µM; TGI (HS 578T breast): > 100 µM; TGI (HCC-2998 colon): > 31.1 µM; TGI (NCI-H522 lung): 3.98 µM; TGI (HOP-18 NSCLC): > 100 µM; TGI (SF-295 CNS): > 100 µM; TGI (UACC-62 melanoma): 15 µM; TGI (HOP-62 NSCLC): > 100 µM; TGI (MDA-MB-435): > 100 µM; TGI (SF-268 CNS): > 100 µM; TGI (KM12 colon): > 100 µM; TGI (SW-620 colon): 16.5 µM; TGI (SK-MEL-5 melanoma): > 63.9 µM; TGI (CAKI-1 renal): > 34 µM; TGI (MDA-N): > 100 µM; TGI (RXF 393 renal): 12.7 µM; TGI (HCT-15 colon): > 60.1 µM; TGI (HOP-92 NSCLC): > 100 µM; TGI (DLD-1 colon): 5.22 µM; TGI (NCI/ADR-RES ovarian): > 100 µM; TGI (IGROV1 ovarian): > 100 µM; TGI (LOX IMVI melanoma): > 78.3 µM; TGI (U251 CNS): 25.8 µM; TGI (T-47D breast): > 100 µM; TGI (SNB-75 CNS): > 29.8 µM; TGI (CCRF-CEM leukemia): 4.42 µM; TGI (DMS 114 small cell lung): 0.904 µM; TGI (A498 renal): > 54.4 µM; TGI (K-562 leukemia): 24.9 µM; TGI (SF-539 CNS): > 83.6 µM; TGI (HCT-116 colon): 24.9 µM; TGI (NCI-H226 lung): > 100 µM; TGI (DU-145 prostate): > 100 µM; TGI (M14 melanoma): 98.4 µM; TGI (SN12C renal): > 100 µM; TGI (UACC-257 melanoma): > 100 µM; TGI (UO-31 renal): > 100 µM; TGI (MOLT-4 leukemia): 9.89 µM; TGI (OVCAR-3 ovarian): 15.8 µM; TGI (KM20L2 colon): > 53.2 µM; TGI (XF 498 CNS): 16 µM; TGI (SNB-78 CNS): > 100 µM; TGI (SR leukemia): 14.8 µM; TGI (PC-3 prostate): > 100 µM; TGI (TK-10 renal): > 100 µM

How did the TGI (LXFL 529 NSCLC) turn out when Cc1ccc(N=Nc2c(C)nn(-c3ccccc3)c2-c2ccccc2)c(Br)c1 was run?
Its TGI is over 100 µM.

What about the TGI (ACHN renal) of the same compound?
Its TGI is over 100 µM.

What about the TGI (MALME-3M melanoma) of the same compound?
Its TGI is over 100 µM.

And the TGI (SK-MEL-2 melanoma)?
Its TGI is over 100 µM.

What about the TGI (OVCAR-4 ovarian) of the same compound?
The TGI was over 100 µM.

What about the TGI (HL-60(TB) leukemia) of the same compound?
The TGI was over 100 µM.

What about the TGI (SNB-19 CNS) of the same compound?
Its TGI is over 100 µM.

And the TGI (786-0 renal)?
Its TGI is over 100 µM.

What about the TGI (NCI-H460 lung) of the same compound?
Its TGI is over 100 µM.

And the TGI (SK-MEL-28 melanoma)?
Its TGI is over 100 µM.

And the TGI (M19-MEL melanoma)?
The TGI was over 100 µM.

What about the TGI (EKVX NSCLC) of the same compound?
The TGI was over 100 µM.

What about the TGI (SK-OV-3 ovarian) of the same compound?
Its TGI is over 100 µM.

What about the TGI (HT29 colon) of the same compound?
The TGI was over 100 µM.

What about the TGI (A549 NSCLC) of the same compound?
Its TGI is over 100 µM.

What about the TGI (OVCAR-8 ovarian) of the same compound?
Its TGI is over 100 µM.

And the TGI (HCC-2998 colon)?
Its TGI is over 100 µM.

And the TGI (NCI-H522 lung)?
The TGI was over 100 µM.

And the TGI (HOP-18 NSCLC)?
The TGI was over 100 µM.

And the TGI (SF-295 CNS)?
The TGI was over 100 µM.

What about the TGI (UACC-62 melanoma) of the same compound?
The TGI was over 100 µM.

What about the TGI (HOP-62 NSCLC) of the same compound?
Its TGI is over 100 µM.

And the TGI (RXF-631 renal)?
Its TGI is over 100 µM.

And the TGI (SF-268 CNS)?
Its TGI is over 100 µM.

What about the TGI (KM12 colon) of the same compound?
Its TGI is over 100 µM.

And the TGI (SW-620 colon)?
Its TGI is over 100 µM.

And the TGI (CAKI-1 renal)?
Its TGI is over 100 µM.

What about the TGI (HCT-15 colon) of the same compound?
Its TGI is over 100 µM.

And the TGI (HOP-92 NSCLC)?
The TGI was over 100 µM.

What about the TGI (DLD-1 colon) of the same compound?
Its TGI is over 100 µM.

And the TGI (IGROV1 ovarian)?
Its TGI is over 100 µM.

And the TGI (LOX IMVI melanoma)?
The TGI was over 100 µM.

What about the TGI (SNB-75 CNS) of the same compound?
Its TGI is over 100 µM.

And the TGI (CCRF-CEM leukemia)?
The TGI was over 100 µM.

And the TGI (A498 renal)?
The TGI was over 100 µM.

And the TGI (K-562 leukemia)?
The TGI was over 100 µM.

And the TGI (SF-539 CNS)?
The TGI was over 100 µM.

And the TGI (HCT-116 colon)?
The TGI was over 100 µM.

What about the TGI (NCI-H226 lung) of the same compound?
The TGI was over 100 µM.

What about the TGI (M14 melanoma) of the same compound?
Its TGI is over 100 µM.

What about the TGI (SN12C renal) of the same compound?
Its TGI is over 100 µM.

What about the TGI (UACC-257 melanoma) of the same compound?
The TGI was over 100 µM.

And the TGI (UO-31 renal)?
The TGI was over 100 µM.

What about the TGI (MOLT-4 leukemia) of the same compound?
The TGI was over 100 µM.

What about the TGI (OVCAR-3 ovarian) of the same compound?
The TGI was over 100 µM.

And the TGI (KM20L2 colon)?
Its TGI is over 100 µM.

What about the TGI (SR leukemia) of the same compound?
Its TGI is over 100 µM.

What about the TGI (TK-10 renal) of the same compound?
The TGI was over 100 µM.
